Experimental data from paper PMC12358976, “NMR-Based Fragment Screen of the von Hippel-Lindau Elongin C&B Complex” (ACS Medicinal Chemistry Letters, 2025).
Read-outs that look alike come from different tables or passages of the source.

Biological target: T1, VHL-Elongin C-Elongin B (VCB) complex (Homo sapiens, UniProt P40337)
T1 construct: gene (residues 54-213) was cloned into pET28a(+) vector; Elongin C (residues 17-112); His-tag (cleaved yes); made in house; host or cells: E. coli BL21(DE3), M9 minimal media with 15NH4Cl
T1 sequence (P40337 54-213): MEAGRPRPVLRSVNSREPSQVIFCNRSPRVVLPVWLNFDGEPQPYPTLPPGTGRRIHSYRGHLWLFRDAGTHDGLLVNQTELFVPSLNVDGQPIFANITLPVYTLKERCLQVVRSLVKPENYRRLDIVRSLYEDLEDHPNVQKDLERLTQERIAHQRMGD
T1 sequence (Q15369 17-112, further chain): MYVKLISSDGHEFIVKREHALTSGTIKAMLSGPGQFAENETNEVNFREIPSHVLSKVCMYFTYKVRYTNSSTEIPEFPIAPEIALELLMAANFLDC
T1 sequence (Q15370 1-104 partner limits assumed): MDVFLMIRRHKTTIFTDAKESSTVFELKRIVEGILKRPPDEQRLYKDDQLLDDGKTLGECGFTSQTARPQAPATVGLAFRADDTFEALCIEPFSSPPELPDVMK
Assay: Protein-observed NMR (1H-15N TROSY) titration of fragment hits against 15N-labeled VCB
Assay type: binding
Experimental: All NMR experiments were carried out at 310K using a 900 MHz Bruker Avance III spectrometer equipped with a TXI/TCI CryoProbe and a Bruker SampleJet. Two-dimensional 1H-15N TROSY spectra of VCB complex were recorded using 30-minute acquisition time and analyzed using Topspin 4.1.4 (Bruker). […]
screened as mixtures of 12 fragments prepared in twelve 96-well plates. Each NMR sample was made of 100µM of 15N-labeled VCB, 800µM of each fragment, and 5% DMSO-d6 for spectrometer locking in 3mm-diameter NMR tubes (Bruker). Hit mixtures were identified by comparing the chemical shifts of the backbone resonances to a ligand-free VCB spectrum and then deconvoluted by screening individual fragments.
TROSY titration experiments were used to determine binding affinity of the fragment hits identified from the screen. […]

[1] = TROSY titration, fragment 0.31-10 mM, 310K, Hill's equation model, hits grouped by binding pocket (A unknown, B VHL cryptic, C Elongin C, D HIF1α), read-out: NMR-derived binding affinity (KD)

Row | SMILES | Kd [1] | Kd
1 | O=C1CCc2cc([N+](=O)[O-])ccc2N1 [compound 1] | 1700 µM | 
2 | Nc1nc2ccccc2n1Cc1ccccc1 [compound 2] | 490 µM | 
3 | CC(C)OC(=O)c1ccc(Cl)c(N)c1 [compound 4] | 5600 µM | 
4 | CC(C)NC(=O)c1cc2ccc3cccnc3c2[nH]1 [compound 5] | 8200 µM | 
5 | Clc1ccc(CN2CCCCC2)cc1Cl [compound 6] | 450 µM | 
6 | CC(=O)c1cccc(NC(=O)c2cccs2)c1 [compound 7] | 470 µM | 
7 | SC1=NC2(CCCC2)N=C1c1ccccc1 [compound 8] | 530 µM | 
8 | CC(=O)N1CCc2ccc([N+](=O)[O-])cc21 [compound 9] | 660 µM | 
9 | O=C(Nc1ccc(F)c(Cl)c1)c1cnccn1 [compound 10] | 710 µM | 
10 | Cc1cc(Nc2cccc(O)c2)c2cccc(C)c2n1 [compound 11] | 1600 µM | 
11 | CN(C)CCN(C)Cc1ccc(F)cc1 [compound 12] | 1300 µM | 
12 | CC(C)N1CCN(Cc2ccccc2F)CC1 [compound 14] |  | 3700 µM
13 | Nc1ccc2c(c1)ncn2CCO [compound 15] | 4000 µM | 
14 | Cc1nc2cc(C(=O)O)ccc2n1C [compound 16] | 6000 µM | 
15 | O=C(O)c1ccnc2[nH]cnc12 [compound 17] | 7500 µM | 
